In patent US9169254B2, “Spiroimidazolone derivative” (Chugai Seiyaku Kabushiki Kaisha, priority 2009, dated 2015):
Read-outs that look alike come from different tables or passages of the source. Values belong to the molecule of their own block, whether it stands above or below them.

Experiments:
human PTH1 receptor = target: T1, human PTH1 receptor (Homo sapiens, UniProt Q03431); experiment: In vitro cAMP signal activity in HKRK-B7 cells (LLC-PK1 cells overexpressing the human PTH1 receptor); type: cell-based; details: HKRK-B7 cells; compound at 1×10^−3 M; cAMP produced as percentage of that produced by hPTH(1-34) at 100 nM
T1 sequence (Q03431 27-593): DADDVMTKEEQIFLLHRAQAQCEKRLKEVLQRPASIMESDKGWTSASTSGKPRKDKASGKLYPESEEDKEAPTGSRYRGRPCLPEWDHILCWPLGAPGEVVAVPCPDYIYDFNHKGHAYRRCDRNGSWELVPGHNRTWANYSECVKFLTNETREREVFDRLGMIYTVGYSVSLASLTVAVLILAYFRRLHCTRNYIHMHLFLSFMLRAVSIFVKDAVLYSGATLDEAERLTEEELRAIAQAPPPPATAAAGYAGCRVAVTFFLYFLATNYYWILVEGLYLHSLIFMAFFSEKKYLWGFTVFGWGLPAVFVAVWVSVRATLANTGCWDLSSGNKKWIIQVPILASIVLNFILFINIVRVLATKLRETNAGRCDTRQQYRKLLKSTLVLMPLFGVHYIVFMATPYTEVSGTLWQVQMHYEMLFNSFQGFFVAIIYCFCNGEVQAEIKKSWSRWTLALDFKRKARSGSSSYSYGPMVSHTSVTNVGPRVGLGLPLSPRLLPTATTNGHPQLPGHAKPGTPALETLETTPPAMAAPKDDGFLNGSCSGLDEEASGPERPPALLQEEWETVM

[1] = subcutaneous administration, cited from earlier work
[2] = subcutaneous administration, cited from earlier work; remark: listed apart in the source

cAMP production activity (%) (human PTH1 receptor): 15%
Molecule: Cc1cc2cc(C)c1CCS(=O)(=O)N1CCC3(CC1)N=C(CCCC/C=C/CCCCC(=O)N2C)NC3=O [Compound 1447]

cAMP production activity (%) (human PTH1 receptor): 9.4%
Molecule: Cc1cc2cc(C)c1CCS(=O)(=O)N1CCC3(CC1)N=C(CCCCCCCCCCC(=O)N2C)NC3=O [Compound 1448]

cAMP production activity (%) (human PTH1 receptor): 18%
Molecule: Cc1cc2ccc1CCS(=O)(=O)N1CCC3(CC1)N=C(NC3=O)c1cc(cc(C(F)(F)F)c1)OCCCCCNC(=O)CN(C)C2=O [Compound 1449]

Second part, the molecule before the results:

Molecule: CC[C@H](C)[C@H](NC(=O)[C@H](CCC(=O)O)NC(=O)[C@H](CO)NC(=O)[C@@H](NC(=O)[C@@H](N)CO)C(C)C)C(=O)N[C@@H](CCC(N)=O)C(=O)N[C@@H](CC(C)C)C(=O)N[C@@H](CCSC)C(=O)N[C@@H](Cc1cnc[nH]1)C(=O)N[C@@H](CC(N)=O)C(=O)N[C@@H](CC(C)C)C(=O)NCC(=O)N[C@@H](CCCCN)C(=O)N[C@@H](Cc1cnc[nH]1)C(=O)N[C@@H](CC(C)C)C(=O)N[C@@H](CC(N)=O)C(=O)N[C@@H](CO)C(=O)N[C@@H](CCSC)C(=O)N[C@@H](CCC(=O)O)C(=O)N[C@@H](CCCN=C(N)N)C(=O)N[C@H](C(=O)N[C@@H](CCC(=O)O)C(=O)N[C@@H](Cc1c[nH]c2ccccc12)C(=O)N[C@@H](CC(C)C)C(=O)N[C@@H](CCCN=C(N)N)C(=O)N[C@@H](CCCCN)C(=O)N[C@@H](CCCCN)C(=O)N[C@@H](CC(C)C)C(=O)N[C@@H](CCC(N)=O)C(=O)N[C@@H](CC(=O)O)C(=O)N[C@H](C(=O)N[C@@H](Cc1cnc[nH]1)C(=O)N[C@@H](CC(N)=O)C(=O)N[C@@H](Cc1ccccc1)C(=O)O)C(C)C)C(C)C [human PTH(1-34), teriparatide]
decrease of the risk of nonvertebral fracture ([1]; in two years): 55%
decrease of the risk of vertebral fracture ([1]; in two years): 65%
increase of the spine bone mineral density (BMD) ([2]; in one year): 8%

B1: human PTH(1-84): "Native human parathyroid hormone is a polypeptide consisting of 84 amino acids" (protein, UniProt P01270 32-115, looked up)
Parathyroid hormone: SVSEIQLMHNLGKHLNSMERVEWLRKKLQDVHNFVALGAPLAPRDAGSQRPRKKEDNVLVESHEKSLGEADKADVNVLTKAKSQ
modifications: Parathyroid hormone
decrease of the risk of vertebral fracture ([1]; 18-month study): 58%
increase of the spine bone mineral density (BMD) ([2]; in 18 months): 6.9%
